Data on 15 compounds can be found in publication PMC12298624, “Anti-Infective Properties, Cytotoxicity, and In Silico ADME Parameters of Novel 4′-(Piperazin-1-yl)benzanilides” (Pharmaceuticals, 2025).

Like-named read-outs stand apart in the source and are kept apart here.

One data set has as its system P. falciparum NF54. Nature of the data set: In vitro microplate assay against P. falciparum NF54 (3H-hypoxanthine incorporation). The note with it: Plasmodium falciparum. The class given is cell-based, Plasmodium falciparum. How it is done:
Serial drug dilutions of eleven 3-fold dilution steps covering a range from 100 to 0.002 µg/mL were prepared. […] After 48 h of incubation time, 0.05 mL of ^3H-hypoxanthine (=0.5 µCi) was added to each well of the plate. The plates were incubated for a further 24 h under the same conditions. Plates were then harvested using a BetaplateTM cell harvester (Wallac, Zurich, Switzerland). Red blood cells were transferred onto a glass fiber filter and then washed with distilled aqua demin. The dried filters were inserted into a plastic foil with 10 mL of scintillation fluid and counted in a BetaplateTM liquid scintillation counter (Wallac, Zurich, Switzerland). IC50 values were calculated from sigmoidal inhibition curves by linear regression using Microsoft Excel. […] Louis, MO, USA) was used as control.

A short description of data set [1]: Resazurin-based in vitro cytotoxicity with L-6 cells. The class given is cell-based, rat. As for the experimental part:
Serial drug dilutions of eleven 3-fold dilution steps covering a range from 100 to 0.002 µg/mL were prepared. After 70 h of incubation, the plates were inspected under an inverted microscope to assure growth of the controls and sterile conditions. […] The plates were read with a Spectramax Gemini XS microplate fluorometer (Molecular Devices Cooperation, Sunnyvale, CA, USA) using an excitation wavelength of 536 nm and an emission wavelength of 588 nm. IC50 values were calculated by linear regression from the sigmoidal dose–inhibition curves using SoftmaxPro software Version 8.2.1 (Molecular Devices Cooperation, Sunnyvale, CA, USA). Podophyllotoxin (Sigma P4405) was used as control.

Data set [2] can be described thus: Resazurin-based in vitro cytotoxicity with HepG2 cells. The note with it: HepG2 cells; human hepatocarcinoma cells, 48 h. The class given is cell-based, human. As for the experimental part:
The HepG2 cells were washed with DPBS (Dulbecco’s PBS without calcium and magnesium, Gibco, Cat #21600-044) and trypsinized with trypsin solution in DPBS. Trypsinization was stopped by adding culture medium, and after being stained with Trypan Blue (SORS Ukraine) cells were counted using a counting chamber (Hausser Scientific, Cat #3500). The cell suspension was placed in a falcon tube containing plating medium DMEM/High glucose with 1% fetal bovine serum, 100 units/mL penicillin, and 100 µg/mL streptomycin. Cells at a density of 250,000 cells/mL were seeded in sterile 384-well plates (Greiner Bio-One, Cat #781091) in a volume of […] and incubated at 37 °C and 5% CO2. Serial dilutions of ten 3-fold dilution steps of test and reference compounds covering a range from 100.0 to 0.005 µM were added to the wells, followed by incubation at 37 °C and 5% CO2 for 48 h. Then, resazurin (50 µM final concentration) was added and plates were incubated for another 3 h. The plates were read with a SpectraMax microplate reader (Molecular Devices Cooperation, Sunnyvale, CA, USA)) using an extinction wavelength of 555 nm and an emission wavelength of 570 nm. IC50 values were calculated using GraphPad Prism 9.0 charting software. Doxorubicin (Sigma Aldrich D1515) was used as control.

Data set [3] is described as follows: Parallel artificial membrane permeability assay (PAMPA). The conditions noted are these: for Papp at 5 h, 200 µM: PAMPA, pH 7.4, Pe, PBS pH 7.4, 200 µM, room temperature; for Pe: PAMPA standards. As for the experimental part:
With the high-throughput PAMPA the newly synthesized compounds were tested for their passive permeability through cell membranes without the influence of efflux pumps or transporter proteins. The assay was performed using a Corning® Gentest^TM Precoated PAMPA Plate System (Corning, Glendale, AZ, USA) with 96-well polystyrene plates. The bottom of the acceptor plate consists of a porous membrane, whereby the pores are lined with a lipid–oil–lipid triple layer. Stock solutions of each test compound at 10 mM were prepared in DMSO or methanol and diluted with phosphate-buffered saline (PBS at a pH of 7.4) to a final concentration of 200 µM. […] The donor plate (bottom plate) was filled with the compound solutions, whereby all compounds were tested in quadruplicates. Each well of the acceptor plate (top plate) was filled with PBS buffer. Donor and acceptor plates were combined and incubated at room temperature for 5 h. After that, the plates were separated and 150 µL of each well of both plates were transferred to 96-well UV plates (Greiner Bio-One). Absorption at different wavelengths covering a range from 200 to 300 nm was measured using a SpectraMax M3 UV plate reader. […] The plates were analyzed at the wavelength where the R2 value of the calibration curve was higher than 0.99 [47].
Recovery of compounds from donor and acceptor wells (mass retention) was calculated as shown in the equation below. Data were only accepted when recovery exceeded 70%. The equation is as follows:(3) R=1−[cDt×VD+cAt×VA]/(c0×VD) where

The mark [4] stands for this setting: rat skeletal myofibroblasts, read-out: Cytotoxicity L-6 Cells IC50.
The mark [5] stands for this setting: NF54, chloroquine-sensitive strain NF54, erythrocytic stages, read-out: P.f.NF54 IC50.

As for `CCN(CC)CCCC(C)Nc1ccnc2cc(Cl)ccc12` (centres unmarked) [CQ, chloroquine, reference compound], the IC50 in the data set on P. falciparum NF54 (NF54, read-out: P.f.NF54 IC50) stood at 0.009 µM. The IC50 at 70 h in data set [1] (setting [4]) is 90.9 µM.
Turning to `CN1CCN(c2ccccc2NC(=O)c2cccc(C(F)(F)F)c2Oc2ccc(F)cc2)CC1` [Compound 31, 2-(4-Fluorophenoxy)-N-[2-(4-methylpiperazin-1-yl)phenyl]-3-(trifluoromethyl)benzamide], the 50% inhibitory concentration (IC50) in the data set on P. falciparum NF54 (setting [5]) worked out at 14 µM. For the same compound, the IC50 at 70 h in data set [1] (rat) turned out to be 120 µM.
As for `O=C(Nc1ccccc1N1CCOCC1)c1cccc(C(F)(F)F)c1Oc1ccc(F)cc1` [Compound 32, 2-(4-Fluorophenoxy)-N-[2-(morpholin-4-yl)phenyl]-3-(trifluoromethyl)benzamide], the IC50 with P. falciparum NF54 (setting [5]) came out at 3.04 µM. The same compound displayed an IC50 at 70 h in data set [1] (rat) of 161 µM. In addition, the half-maximal inhibitory concentration (IC50) at 48 h in data set [2] is greater than 100 µM. The apparent permeability coefficient (Papp) at 5 h, 200 µM in data set [3] came to 6.63 ×10⁻⁶ cm/s.
On to `O=C(Nc1ccc(N2CCOCC2)cc1)c1cccc(C(F)(F)F)c1Oc1ccc(F)cc1` [Compound 33, 2-(4-Fluorophenoxy)-N-[4-(morpholin-4-yl)phenyl]-3-(trifluoromethyl)benzamide], for which the IC50 in the data set on P. falciparum NF54 (setting [5]) was determined as 6.81 µM. The half-inhibitory concentration (IC50) at 70 h in data set [1] (rat) worked out at 195 µM. This compound showed a 50% inhibitory concentration (IC50) at 48 h in data set [2] of 35.3 µM. The Papp at 5 h, 200 µM in data set [3] is 3.92 ×10⁻⁶ cm/s.
Regarding `CN(C)c1ccccc1NC(=O)c1cccc(C(F)(F)F)c1Oc1ccc(F)cc1` [Compound 35, N-[2-(Dimethylamino)phenyl]-2-(4-fluorophenoxy)-3-(trifluoromethyl)benzamide], the 50% inhibitory concentration (IC50) in the data set on P. falciparum NF54 (setting [5]) was 4.4 µM. This compound yielded an IC50 at 70 h in data set [1] (rat) of 25.1 µM.
For the compound `CN(C)c1ccc(NC(=O)c2cccc(C(F)(F)F)c2Oc2ccc(F)cc2)cc1` [Compound 36, N-[4-(Dimethylamino)phenyl]-2-(4-fluorophenoxy)-3-(trifluoromethyl)benzamide], in the data set on P. falciparum NF54 (setting [5]), the IC50 is 7.58 µM. Moreover, in data set [1] (rat), the IC50 at 70 h was 239 µM. In data set [2], this compound came in with an IC50 at 48 h greater than 100 µM.
In the case of `CC(C)(C)OC(=O)N1CCN(C(=O)c2cccc(C(F)(F)F)c2Oc2ccc(F)cc2)CC1` [Compound 50, tert-Butyl-4-[2-(4-fluorophenoxy)-3-(trifluoromethyl)benzoyl]piperazine-1-carboxylate], the IC50 in the data set with P. falciparum NF54 (setting [5]) worked out at 51.8 µM. Moreover, in data set [1] (rat), half-maximal inhibition (IC50 at 70 h) was put at 41.4 µM. The compound also gave a 50% inhibitory concentration (IC50) at 48 h in data set [2] of 35.2 µM. The same compound had an apparent permeability coefficient (Papp) at 5 h, 200 µM in data set [3] of 1.82 ×10⁻⁶ cm/s.
`O=C(Nc1ccccc1N1CCNCC1)c1cccc(C(F)(F)F)c1Oc1ccc(F)cc1` [Compound 53, 2-(4-Fluorophenoxy)-N-[2-(piperazin-1-yl)phenyl]-3-(trifluoromethyl)benzamide]: in the data set with P. falciparum NF54 (setting [5]), the IC50 is 1.04 µM. Moreover, in data set [1] (rat), the half-inhibitory concentration (IC50) at 70 h was determined as 13.5 µM. Also, in data set [2], 4.1 µM corresponded to half-maximal inhibition (IC50 at 48 h). The compound further came in with a Papp at 5 h, 200 µM in data set [3] of 6.39 ×10⁻⁶ cm/s.
On to `CC(=O)Nc1ccc(Oc2c(C(=O)Nc3ccccc3N3CCNCC3)cccc2C(F)(F)F)cc1` [Compound 54, 2-(4-Acetamidophenoxy)-N-[2-(piperazin-1-yl)phenyl]-3-(trifluoromethyl) benzamide], for which the half-maximal inhibitory concentration (IC50) in the data set with P. falciparum NF54 (setting [5]) is 11.1 µM. In data set [1] (rat), this compound had an IC50 at 70 h of 13.2 µM. The same compound returned a Papp at 5 h, 200 µM in data set [3] of 0.26 ×10⁻⁶ cm/s.
For the compound `CC(=O)Nc1ccc(Oc2c(C(=O)Nc3ccc(N4CCNCC4)cc3)cccc2C(F)(F)F)cc1` [Compound 63, 2-(4-Acetamidophenoxy)-N-[4-(piperazin-1-yl)phenyl]-3-(trifluoromethyl)benzamide], the half-maximal inhibitory concentration (IC50) with P. falciparum NF54 (setting [5]) was determined as 15.7 µM. Moreover, the half-maximal inhibitory concentration (IC50) at 70 h in data set [1] (rat) was found to be 113 µM.
Take `O=C(Nc1ccc(N2CCNCC2)cc1)c1cccc(C(F)(F)F)c1` [Compound 66, N-[4-(Piperazin-1-yl)phenyl]-3-(trifluoromethyl)benzamide]: the 50% inhibitory concentration (IC50) with P. falciparum NF54 (setting [5]) is 2.6 µM. Besides, in data set [1] (rat), it took 41.5 µM to reach half-maximal inhibition (IC50 at 70 h). The IC50 at 48 h in data set [2] was found to be 11.8 µM. In addition, the Papp at 5 h, 200 µM in data set [3] is 3.91 ×10⁻⁶ cm/s.
For the compound `COc1cccc2c1C(=O)c1c(O)c3c(c(O)c1C2=O)C[C@@](O)(C(=O)CO)C[C@@H]3O[C@H]1C[C@H](N)[C@H](O)[C@H](C)O1` [DOX, doxorubicin, reference compound], inhibition in data set [2] was half-maximal at 0.3 µM (IC50 at 48 h).
For the compound `COc1cc([C@@H]2c3cc4c(cc3[C@H](O)[C@H]3COC(=O)[C@H]23)OCO4)cc(OC)c1OC` [POD, podophyllotoxin, reference compound], the concentration for half-maximal inhibition (IC50) at 70 h in data set [1] (setting [4]) turned out to be 0.012 µM.
In turn, `Cn1c(=O)c2c(ncn2C)n(C)c1=O` [caffeine, reference compound] returned a Pe in data set [3] of 8 ×10⁻⁶ cm/s.
Take `NS(=O)(=O)c1cc2c(cc1Cl)NCNS2(=O)=O` [hydrochlorothiazide, reference compound]: the Pe in data set [3] was 0.09 ×10⁻⁶ cm/s.
